US20230210819A1, “USE OF BENZISOSELAZOLE DERIVATIVE FOR ANTI-CORONAVIRUS AND CONTROL OF INTERSTITIAL LUNG DISEASE (ILD) RELATED TO CORONAVIRUS” (SHANGHAI YUANXI MEDICINE CORP., priority 2020, published 2023)

Columns and labels:
Type in all cases: in vivo, C57 mice
[1] = system: inflammatory cells in bronchoalveolar lavage fluid; assay: Inflammatory cell assay of bronchoalveolar lavage fluid, 7-d modeling
Procedure: (§1) Animals of 7-d modeling were randomly divided into 7 groups according to the table below, 6 animals per control group and 12 animals per test group.
(§2) Drug administration began 24 h or 7 d after modeling. […] The day of the first administration was counted as D1, the next day as D2, and so forth. The normal groups and Model groups were given 200 µL of normal saline daily by gavage administration.
After the mouse was fixed, its trachea and chest cavity were exposed, and the trachea and the esophagus were bluntly separated with an ophthalmic curved forceps. Two sutures were made between the trachea and the esophagus. An intravenous trocar was inserted into the trachea and ligated at the site where it entered the trachea and at its distal end. A 1 mL syringe was connected to draw in 1 mL of pre-cooled PBS and infuse it into the lung tissue. Significant filling in the lung could be seen with the naked eye. The syringe was held for 10 s and withdrawal was performed. The infusion/withdrawal cycle was repeated 3 times. The withdrawn BALF was transferred to a clean EP tube and centrifuged at 4° C., and the supernatant was collected and preserved at -80° C. The cells were subjected to routine tests.
Upon the end of the administration, the leukocytes (lymphocytes, neutrophils and monocytes) in the bronchoalveolar lavage fluids of the mice in the 7-d modeling groups were classified and counted.

[2] = system: bleomycin-induced mouse lung disease model; assay: Assay of lung tissues for hydroxyproline content, 24-h modeling; conditions: day 35 of administration
Procedure: Animals of 24-h modeling were randomly divided into 5 groups according to the table below, 3 animals per control group and 5 animals per test group.
as §2
[…] 2 mL of pre-cooled normal saline was added. The tissues were cut into as many pieces as possible and centrifuged at 2000 rpm/min for 2 min, and the supernatant was discarded. • 2. To the precipitate was added 1 mL of RIPA lysis buffer (mixed protease inhibitor Cocktail was added in a ratio of 1:100 before use, and the resulting mixture was preserved on ice). […]
(II) Protein concentration assay by BCA • 1. […] A proper BCA working solution was freshly prepared according to the quantity of the standard substance and samples. […] The plate was incubated at 37° C. for 30 min, and the absorbance at 570 nm was measured on a microplate reader. The sample protein concentration was calculated from the standard curve.
(III) HYP level assay • 1. […] To each well was added 50 µL of terminating solution, and the absorbance was immediately measured at a wavelength of 450 nm. […]

[3] = system: bleomycin-induced mouse lung disease model; assay: Lung HE pathological analysis (Ashcroft score), 7-d modeling; conditions: for HE score (pulmonary fibrosis, Ashcroft): 18 fields of view
Procedure: as §1, §2
1. […] Specifically, a mold was prepared first, and then the tissue was laid flat at the bottom of the mold; after the section face was arranged facedown, the embedding box cover was put on the mold; molten wax was poured into the mold until it overflowed the mold, and then the mold was gently lifted up and laid flat in a freezing platform; after being rapidly cooled and frozen for about 10 min, the mold was took out. • 6) Sectioning method
2. HE staining • 1) A flat section was selected for HE staining. • 2) The section was dewaxed in xylene I for 20 min. • 3) The section was dewaxed in xylene II for 20 min. • 4) The section was soaked in absolute ethanol for 10 min. • 5) Stepwise rehydrating, in absolute ethanol for 5 min, in 90% ethanol for 5 min, in 80% ethanol for 5 min, and in […] for 5 min; and a water wash. • 6) Staining with hematoxylin for 3-5 min. A water wash. • 7) Differentiating with 1% HCl-[…] for 5-10 s. A water wash, and bluing. • 8) Staining with eosin for 30-60 s. A water wash. • 9) Washing with 80% ethanol for 3-5 s, with 95% ethanol for 3-5 s, and with absolute ethanol for 3-5 s. • 10) Coverslipping with neutral resin, observing under a microscope, and photographing.
HE sectioning: 3 sections were consecutively made; flat sections of complete tissue were selected for HE staining; each of the sections was photographed in 3 randomly selected fields of view at 200x magnification. The obtained images were scored.
The general standard Ashcroft scoring method for pulmonary fibrosis tissues was adopted in HE scoring. The HE pathological analysis is an outcome evaluation for irreversible pulmonary fibrosis that develops in interstitial lung disease models.
For 6 animals from each of the 7-d modeling groups, a total of 18 HE fields of view were scored.

[4] = 7-d modeling, BSH: BS 180 mg/kg gavage daily
[5] = 7-d modeling, BSL: BS 36 mg/kg gavage daily
[6] = 7-d modeling, BSM: BS 90 mg/kg gavage daily
[7] = Dex 1-1.5 mg/kg i.p. every two days
[8] = 7-d modeling, Dex 1-1.5 mg/kg i.p. every two days

For `O=c1c2ccccc2[se]n1CCCCn1[se]c2ccccc2c1=O` [BS, 1,4-[bis(1,2-benzisoselenazol-3(2H)-one)]butane], the “Effect on pulmonary inflammation (in words)” value ([1]; BS 180 mg/kg, better than Dex (1-1.5 mg/kg)) was “significantly ameliorate pulmonary inflammation”, the “Absolute leukocyte count in bronchoalveolar lavage fluid” value (shortened to “Absolute leukocyte count”) ([1]; BSH: BS 180 mg/kg gavage daily) was 0.43±0.04 10^9/L and the “Absolute lymphocyte count in bronchoalveolar lavage fluid” value (“Absolute lymphocyte count” for short) ([1]; BSH: BS 180 mg/kg gavage daily) was 0.34±0.03 10^9/L. For the same compound, the “Absolute monocyte count in bronchoalveolar lavage fluid” value (“Absolute monocyte count” for short) ([1]; BSH: BS 180 mg/kg gavage daily) was 0.02±0.00 10^9/L, the “Absolute neutrophil count in bronchoalveolar lavage fluid” value (shortened to “Absolute neutrophil count”) ([1]; BSH: BS 180 mg/kg gavage daily) was 0.02±0.01 10^9/L and the “Percent reduction in leukocytes in bronchoalveolar lavage fluid with respect to the Model group” value (from here on “Percent reduction in leukocytes”) ([1]; BSH: BS 180 mg/kg gavage daily) was 58.39%. For the same compound, the “Percent reduction in lymphocytes in bronchoalveolar lavage fluid with respect to the Model group” value (shortened to “Percent reduction in lymphocytes”) ([1]; BSH: BS 180 mg/kg gavage daily) was 60.73%, the “Percent reduction in monocytes in bronchoalveolar lavage fluid with respect to the Model group” value (“Percent reduction in monocytes” for short) ([1]; BSH: BS 180 mg/kg gavage daily) was 57.14% and the “Percent reduction in neutrophils in bronchoalveolar lavage fluid with respect to the Model group” value (from here on “Percent reduction in neutrophils”) ([1]; BSH: BS 180 mg/kg gavage daily) was 74.07%. For the same compound, the “Absolute leukocyte count” value ([1]; BSL: BS 36 mg/kg gavage daily) was 0.87±0.04 10^9/L, the “Absolute lymphocyte count” value ([1]; BSL: BS 36 mg/kg gavage daily) was 0.70±0.03 10^9/L and the “Absolute monocyte count” value ([1]; BSL: BS 36 mg/kg gavage daily) was 0.04±0.01 10^9/L. The “Absolute neutrophil count” value ([1]; BSL: BS 36 mg/kg gavage daily) was 0.08±0.01 10^9/L, the “Percent reduction in leukocytes” value ([1]; BSL: BS 36 mg/kg gavage daily) was 16.29% and the “Percent reduction in lymphocytes” value ([1]; BSL: BS 36 mg/kg gavage daily) was 19.54%. The “Percent reduction in monocytes” value ([1]; BSL: BS 36 mg/kg gavage daily) was 25.00%, the “Percent reduction in neutrophils” value ([1]; BSL: BS 36 mg/kg gavage daily) was 7.41% and the “Absolute leukocyte count” value ([1]; BSM: BS 90 mg/kg gavage daily) was 0.69±0.06 10^9/L. The “Absolute lymphocyte count” value ([1]; BSM: BS 90 mg/kg gavage daily) was 0.56±0.05 10^9/L, the “Absolute monocyte count” value ([1]; BSM: BS 90 mg/kg gavage daily) was 00.3±0.01 10^9/L and the “Absolute neutrophil count” value ([1]; BSM: BS 90 mg/kg gavage daily) was 0.08±0.01 10^9/L. The “Percent reduction in leukocytes” value ([1]; BSM: BS 90 mg/kg gavage daily) was 32.90%, the “Percent reduction in lymphocytes” value ([1]; BSM: BS 90 mg/kg gavage daily) was 35.63% and the “Percent reduction in monocytes” value ([1]; BSM: BS 90 mg/kg gavage daily) was 42.86%. For the same compound, the “Percent reduction in neutrophils” value ([1]; BSM: BS 90 mg/kg gavage daily) was 16.67%, the “HY7P, hydroxyproline content in the lungs” value ([2]; BS 90 mg/kg gavage daily) was 2.17 ± 0.19 µg/mL and the “Effect on lung tissue structure, HE (in words)” value ([3]; 7-d model, formation stage, BSL (36 mg/kg), BSM (90 mg/kg) and BSH (180 mg/kg)) was “significantly reduce structural changes in lung tissues”. The “Effect against ECM deposition (in words)” value ([3]; 7-d model, BSH, 180 mg/kg) was “significant synergetic effect against ECM deposition”, the “Clear lung tissue damage or pathological tissue change, in words” value ([3]; 7-d modeling, BSH: BS 180 mg/kg) was “did not show clear lung tissue damage or pathological tissue change” and the “HE score and benefit rate, ≥4 points (fields/total); pathological tissue change” value [3, 4] was 0/18. The “HE score and benefit rate, ≥4 points (percent of fields); probability of pathological tissue change” value [3, 4] was 0%, the “HE score and benefit rate, ≥5 points (fields/total); clear lung tissue damage” value [3, 4] was 0/18 and the “HE score and benefit rate, ≥5 points (percent of fields); probability of clear lung tissue damage” value [3, 4] was 0%. The “HE score and benefit rate, ≥6 points (fields/total)” value [3, 4] was 0/18, the “HE score and benefit rate, ≥6 points (percent of fields)” value [3, 4] was 0% and the “Lung HE histology description” value [3, 4] was “substantially complete lung tissue structures”. For the same compound, the “HE score (pulmonary fibrosis, Ashcroft)” value [3, 4] was 1.48 ± 0.78, the “HE score and benefit rate, ≥4 points (fields/total); pathological tissue change” value [3, 5] was 15/18 and the “HE score and benefit rate, ≥4 points (percent of fields); probability of pathological tissue change” value [3, 5] was 83.3%. The “HE score and benefit rate, ≥5 points (fields/total); clear lung tissue damage” value [3, 5] was 6/18, the “HE score and benefit rate, ≥5 points (percent of fields); probability of clear lung tissue damage” value [3, 5] was 33.3% and the “HE score and benefit rate, ≥6 points (fields/total)” value [3, 5] was 1/18. For the same compound, the “HE score and benefit rate, ≥6 points (percent of fields)” value [3, 5] was 5.6%, the “Lung HE histology description” value [3, 5] was “relatively better lung structures than the Model group” and the “HE score (pulmonary fibrosis, Ashcroft)” value [3, 5] was 4.28 ± 0.83. The “HE score and benefit rate, ≥4 points (fields/total); pathological tissue change” value [3, 6] was 5/18, the “HE score and benefit rate, ≥4 points (percent of fields); probability of pathological tissue change” value [3, 6] was 27.8% and the “HE score and benefit rate, ≥5 points (fields/total); clear lung tissue damage” value [3, 6] was 1/18. For the same compound, the “HE score and benefit rate, ≥5 points (percent of fields); probability of clear lung tissue damage” value [3, 6] was 5.6%, the “HE score and benefit rate, ≥6 points (fields/total)” value [3, 6] was 0/18 and the “HE score and benefit rate, ≥6 points (percent of fields)” value [3, 6] was 0%. For the same compound, the “Lung HE histology description” value [3, 6] was “much better lung structures than the Model group” and the “HE score (pulmonary fibrosis, Ashcroft)” value [3, 6] was 3.00 ± 0.84.
With `C[C@@H]1C[C@H]2[C@@H]3CCC4=CC(=O)C=C[C@]4(C)[C@@]3(F)[C@@H](O)C[C@]2(C)[C@@]1(O)C(=O)CO` [Dex, dexamethasone, reference compound] the “Absolute leukocyte count” value [1, 7] was 0.57±0.02 10^9/L, the “Absolute lymphocyte count” value [1, 7] was 0.46±0.03 10^9/L and the “Absolute monocyte count” value [1, 7] was 0.03±0.01 10^9/L. For the same compound, the “Absolute neutrophil count” value [1, 7] was 0.0±0.01 10^9/L, the “Percent reduction in leukocytes” value [1, 7] was 45.32% and the “Percent reduction in lymphocytes” value [1, 7] was 47.51%. For the same compound, the “Percent reduction in monocytes” value [1, 7] was 46.43%, the “Percent reduction in neutrophils” value [1, 7] was 68.52% and the “HY7P, hydroxyproline content in the lungs” value [2, 7] was 2.25 ± 0.31 µg/mL. The “HE score and benefit rate, ≥4 points (fields/total); pathological tissue change” value [3, 8] was 7/18, the “HE score and benefit rate, ≥4 points (percent of fields); probability of pathological tissue change” value [3, 8] was 38.9% and the “HE score and benefit rate, ≥6 points (fields/total)” value [3, 8] was 0/18. For the same compound, the “HE score and benefit rate, ≥6 points (percent of fields)” value [3, 8] was 0% and the “HE score (pulmonary fibrosis, Ashcroft)” value [3, 8] was 3.28 ± 0.83.
